In publication PMC12754760, “Size-Controlled Mesoporous Silica Nanoparticles via Template Nanoarchitectonics from a Deferoxamine Derivative for Enhanced Blood–Brain Barrier Permeability and Neuroprotective Chelation Therapy” (ACS Applied Materials & Interfaces, 2025):
Where a name gives a salt, the structure may show the parent alone.

How the values were obtained:
[1] = in vivo; cited from earlier work
[2] = Cell viability assay SH-SY5Y (MTT); assay type: cell-based; details: human, SH-SY5Y cells
Description: Briefly, 10.000 BV-2 cells/well in 100 μL of culture medium were seeded into 96-well plates (transparent plate, clear bottom; Costar, Corning Inc.) and incubated overnight at 37 °C in 5% CO2. Stock solutions of the drug were preparate in DMSO, keeping it concentration <1% in the experiments. […] Stock solutions were prepared just before their use. Control wells with DMSO were used to evaluate the possible cytotoxicity of the solvent. After 72 h incubation, CCK-8 (10 μL) was added to each well, and after 3–4 h of incubation at 37 °C, the absorbance values at λ = 450 nm were determined on the Tecan Infinite 200 microplate reader. The cytotoxicity assay for SH-SY5Y was conducted by seeding cells at a density of 40.000 cells/well for 24 h in 96-well plate and incubated overnight. […] The plate was incubated for 24 h. After this time, MTT (10 μL) was added to each well, and after 3–4 h of incubation at 37 °C, the absorbance values at λ = 540 nm were determined on the Tecan Infinite 200 microplate reader.
Data were plotted as % cell viability, normalized vs untreated cells by using GraphPad Prism software version 7.05. Values are expressed as the mean ± SEM of at least three independent experiments. […]

[3] = Caco-2 monolayer drug transport (in vitro BBB model); assay type: in vitro ADME; details: human
Description: The preparation of the Caco-2 cell monolayer as an in vitro BBB model was performed as follows: Caco-2 cells were seeded at a density of 10.000 cells per well on a Millicell 96-well cell culture plate. The culture medium was replaced every 48 h. The formation of the monolayer was monitored by measuring the transepithelial electrical resistance (TEER) using an epithelial voltohmmeter (Millicell-ERS). After 21 days of culture, the Caco-2 cell monolayers were used for permeability experiments. All TEER values measured immediately before the experiments were above 300 Ω·cm^2, confirming the integrity of the monolayer.
Drug transport experiments were carried out following the previously published protocol. Briefly, after 21 days of culture, the medium was removed, and the cells were washed twice with Hank’s Balanced Salt Solution (HBSS) to eliminate any residual culture medium. Subsequently, the wells were refilled with HBSS and incubated at 37 °C for 30 min. After incubation, the HBSS was removed, and solutions containing the compound were added either to the filter well (apical side) or to the receiver plate (basolateral side), while HBSS without the compound was added to the corresponding opposite side. The final concentration of the compounds was 10^–4 M. The plates were then incubated at 37 °C for 2 h. At the end of the incubation period, the samples from both compartments were collected and analyzed by UV–vis spectroscopy. The apparent permeability coefficient (Papp), expressed in nm·s^–1, was calculated using the following equation: 1 Papp=[VA/(area×time)]×([drug]acceptor/[drug]receptor) where VA is the volume (mL) in the acceptor well, area is the surface area of the membrane (0.11 cm^2 of the well), time is the total transport time (7200 s), and [drug] is drug concentration measured by UV–vis spectroscopy.

Structure (SMILES): CC(=O)N(O)CCCCCNC(=O)CCC(=O)N(O)CCCCCNC(=O)CCC(=O)N(O)CCCCCN [DFO, Deferoxamine mesylate]
- Plasma half-life [1]: 20 to 30 min
- viability at 24 h, 100 µM [2]: ~100%
- Papp A→B at 2 h ([3]; apical-to-basolateral, 10^–4 M, 2 h, 37 °C): 76.1 ×10⁻⁶ cm/s
- Papp B→A at 2 h ([3]; basolateral-to-apical, 10^–4 M, 2 h, 37 °C): 162 ×10⁻⁶ cm/s
- efflux ratio at 2 h ([3]; read-out: BA/AB permeability ratio): 2.13
